{"source": "paper PMC2229834", "about": "(Molecular Microbiology, 2007)", "key": {"human PTPS (HsPTPS)": {"molecular_target": "T1, human PTPS (HsPTPS) (Homo sapiens, UniProt Q03393)", "T1 sequence (Q03393 1-145)": "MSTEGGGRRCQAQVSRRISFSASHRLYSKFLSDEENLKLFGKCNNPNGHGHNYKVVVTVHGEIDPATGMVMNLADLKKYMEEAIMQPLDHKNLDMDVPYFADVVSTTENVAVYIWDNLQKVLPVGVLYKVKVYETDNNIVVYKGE", "assay": "HPLC with fluorescence of iodine-oxidised pterin products", "type": "biochemical", "details": "9 uM DHNTP, 10 mM MgCl2, 2 mM DTT, pH 8.0, 37 C, 1 h"}, "E. coli PTPS (EcPTPS)": {"molecular_target": "T2, E. coli PTPS (EcPTPS) (Escherichia coli, UniProt P65870)", "T2 sequence (P65870 1-121)": "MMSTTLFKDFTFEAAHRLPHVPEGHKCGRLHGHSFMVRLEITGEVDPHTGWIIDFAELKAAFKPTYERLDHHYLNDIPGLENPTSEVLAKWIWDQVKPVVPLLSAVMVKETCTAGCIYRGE", "assay": "HPLC with fluorescence of iodine-oxidised pterin products", "type": "biochemical", "details": "9 uM DHNTP, 10 mM MgCl2, 2 mM DTT, pH 8.0, 37 C, 1 h"}}}
{"molecule": "Nc1nc2c(c(=O)[nH]1)N=C([C@H](O)[C@H](O)COP(=O)(O)OP(=O)(O)OP(=O)(O)O)CN2", "note": "[DHNTP]", "values": [{"measurement": "HPLC with fluorescence of iodine-oxidised pterin products", "setting": "human PTPS (HsPTPS)", "value": "Both the bacterial and human enzymes converted DHNTP to PTP as expected"}, {"measurement": "HPLC with fluorescence of iodine-oxidised pterin products", "setting": "E. coli PTPS (EcPTPS)", "value": "Both the bacterial and human enzymes converted DHNTP to PTP as expected"}]}
